Assay [1] deals with T1, endogenous cellular BACE2 (Rattus norvegicus, UniProt Q6IE75).
T1 construct: endogenous cellular BACE2 in the Ins1e rat cell line; endogenous in cells; host or cells: INS-TMEM27 (INS1e-derived rat insulinoma cell line with doxycycline-inducible full-length human TMEM27)
T1 sequence (Q6IE75 63-514): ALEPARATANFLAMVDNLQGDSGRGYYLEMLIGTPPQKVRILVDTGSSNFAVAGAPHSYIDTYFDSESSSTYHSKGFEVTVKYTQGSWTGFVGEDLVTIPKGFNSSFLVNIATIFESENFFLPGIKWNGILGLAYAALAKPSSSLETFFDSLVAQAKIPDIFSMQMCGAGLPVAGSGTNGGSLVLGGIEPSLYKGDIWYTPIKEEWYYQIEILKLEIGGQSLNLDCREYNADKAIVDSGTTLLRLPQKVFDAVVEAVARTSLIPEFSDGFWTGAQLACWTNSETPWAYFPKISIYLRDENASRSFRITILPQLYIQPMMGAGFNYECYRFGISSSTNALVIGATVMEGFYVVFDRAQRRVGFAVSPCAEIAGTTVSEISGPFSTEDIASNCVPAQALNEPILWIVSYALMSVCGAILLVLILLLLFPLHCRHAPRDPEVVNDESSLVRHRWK
Kind of assay: Assay for BACE inhibition by measuring cellular TMEM27 cleavage. It counts as cell-based. The settings on record: INS-TMEM27 (INS1e-derived) cells, shed human TMEM27 in supernatant by ELISA. Summed up: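 INS1e rat cells with doxycycline-inducible human TMEM27 get inhibitor 2 h before doxycycline (500 ng/ml final), then 46 h further at 37° C. Shed TMEM27 in the supernatant is measured by sandwich ELISA, and the EC50 comes from a curve fit of the ELISA signal.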

Assay [2] relates to Aβ40. Kind of assay: Cellular Aβ-lowering assay. It counts as cell-based. The settings on record: HEK293 cells stably expressing human APP695, Aβ40 in supernatant by ELISA after 18-20 hrs; read-out: Cellular assay Abeta40 IC50. A digest of the protocol:
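HEK293 cells stably expressing human wild-type APP695 were treated with compound for 18-20 h at 37 °C in 0.8% v/v DMSO. Secreted Aβ40 in the supernatant was measured by sandwich ELISA (Aβ40 C-terminus-specific capture, HRP-4G8 detection, TMB read at 450 nm) and quantified against a pure Aβ peptide standard curve.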
In general terms: In an ELISA, binding on a coated surface is turned into a signal by an enzyme label.

Here are results for 23 compounds from US8673894B2 (Hoffmann-La Roche Inc., priority 2010, dated 2014).

Where a name gives a salt, the structure may show the parent alone.

Turning to `C[C@@]1(c2cc(NC(=O)c3ncc(Cl)cc3Cl)ccc2F)CCOCC(N)=N1` [Example 8, 3,5-Dichloro-pyridine-2-carboxylic acid [3-((S)-3-amino-5-methyl-2,5,6,7-tetrahydro-[1,4]oxazepin-5-yl)-4-fluoro-phenyl]-amide], the IC50 (usually the midpoint of a concentration-inhibition curve) came out at 1.8 nM in assay [1] and 2.5 nM in assay [2].
In the case of `NC1=N[C@@]2(c3cccc(NC(=O)c4ncc(C(F)(F)F)cc4Cl)c3)C[C@H]2COC1` (stereo in doubt) [Example 51, 3-Chloro-5-trifluoromethyl-pyridine-2-carboxylic acid [3-((R)-3-amino-5-oxa-2-aza-bicyclo[5.1.0]oct-2-en-1-yl)-phenyl]-amide; salt with trifluoroacetic acid], the IC50 in assay [1] was 8590 nM; in assay [2] it was 100 nM.
Take `C[C@@]1(c2cc(NC(=O)c3ncc(C(F)(F)F)cc3Cl)ccc2F)COCCC(N)=N1` [Example 52, 3-Chloro-5-trifluoromethyl-pyridine-2-carboxylic acid [3-((R)-5-amino-3-methyl-2,3,6,7-tetrahydro-[1,4]oxazepin-3-yl)-4-fluoro-phenyl]-amide]: the IC50 was determined as 120 nM in assay [1] and 49 nM in assay [2].
With `CC1(C)C[C@@](C)(c2cc(NC(=O)c3ncc(C(F)(F)F)cc3Cl)ccc2F)N=C(N)CO1` [Example 21, 3-Chloro-5-trifluoromethyl-pyridine-2-carboxylic acid [3-((S)-3-amino-5,7,7-trimethyl-2,5,6,7-tetrahydro-[1,4]oxazepin-5-yl)-4-fluoro-phenyl]-amide], the concentration for half-maximal inhibition (IC50) in assay [1] was found to be 8.7 nM; in assay [2], 3.2 nM.
Consider `CC1(C)OCCC(C)(c2cc(NC(=O)c3ccc(F)cn3)ccc2F)N=C1N` (stereo not shown) [Example 28, 5-Fluoro-pyridine-2-carboxylic acid [3-(3-amino-2,2,5-trimethyl-2,5,6,7-tetrahydro-[1,4]oxazepin-5-yl)-4-fluoro-phenyl]-amide], for which the IC50 in assay [1] worked out at 130 nM; in assay [2], 340 nM.
As to `CC[C@]1(c2cc(NC(=O)c3ncoc3C)ccc2F)N=C(N)COCC1(F)F` [Example 87, (R)-N-(3-(3-amino-5-ethyl-6,6-difluoro-2,5,6,7-tetrahydro-1,4-oxazepin-5-yl)-4-fluorophenyl)-5-methyloxazole-4-carboxamide], the IC50 in assay [1] is 134 nM; in assay [2], 1120 nM.
With `CC1(C)C[C@@](C)(c2cc(NC(=O)CC(F)(F)F)ccc2F)N=C(N)CO1` [Example 22, N-[3-((S)-3-Amino-5,7,7-trimethyl-2,5,6,7-tetrahydro-[1,4]oxazepin-5-yl)-4-fluoro-phenyl]-3,3,3-trifluoro-propionamide], the figures for the half-maximal inhibitory concentration (IC50) in assay [1] and in assay [2] were 55 nM and 980 nM, respectively.
For the compound `C[C@]1(c2cc(NC(=O)c3ccc(C(F)F)cn3)ccc2F)N=C(N)COCC1(F)F` [Example 108, (R)-N-(3-(3-Amino-6,6-difluoro-5-methyl-2,5,6,7-tetrahydro-1,4-oxazepin-5-yl)-4-fluorophenyl)-5-(difluoromethyl)picolinamide formate], the IC50 in assay [1] worked out at 49.5 nM; in assay [2] it was 5.7 nM.
Take `C[C@@]1(c2cc(NC(=O)c3ccc(Cl)cn3)ccc2F)CCOCC(N)=N1` [Example 5, 5-Chloro-pyridine-2-carboxylic acid [3-((S)-3-amino-5-methyl-2,5,6,7-tetrahydro-[1,4]oxazepin-5-yl)-4-fluoro-phenyl]-amide formate]: the IC50 in assay [1] is 0.885 nM; in assay [2] it was 0.9 nM.
Consider `C[C@@]1(c2cc(NC(=O)C3CC3(F)F)ccc2F)CCOCC(N)=N1` (stereo partly drawn) [Example 23, 2,2-Difluoro-cyclopropanecarboxylic acid [3-((S)-3-amino-5-methyl-2,5,6,7-tetrahydro-[1,4]oxazepin-5-yl)-4-fluoro-phenyl]-amide], for which the IC50 in assay [1] came out at 140 nM; in assay [2], 1640 nM.
For the compound `C[C@@]1(c2cc(NC(=O)c3ccc(F)cn3)ccc2F)C[C@@H](c2ccccc2)OCC(N)=N1` [Example 68, 5-Fluoro-pyridine-2-carboxylic acid [3-((5S,7S)-3-amino-5-methyl-7-phenyl-2,5,6,7-tetrahydro-[1,4]oxazepin-5-yl)-4-fluoro-phenyl]-amide], the IC50 in assay [1] stood at 5250 nM; in assay [2], 3850 nM.
For the compound `C[C@]1(c2cc(NC(=O)c3cnc(C(F)F)cn3)ccc2F)N=C(N)COCC1(F)F` [Example 105, (R)-N-(3-(3-Amino-6,6-difluoro-5-methyl-2,5,6,7-tetrahydro-1,4-oxazepin-5-yl)-4-fluorophenyl)-5-(difluoromethyl)pyrazine-2-carboxamide formate], the IC50 in assay [1] came out at 378 nM; in assay [2], 13 nM.
Taken in the same sequence, the figures for `CCn1cc(Cl)c(C(=O)Nc2ccc(F)c([C@@]3(C)N=C(N)COCC3(F)F)c2)n1` [Example 95, (R)-N-(3-(3-Amino-6,6-difluoro-5-methyl-2,5,6,7-tetrahydro-1,4-oxazepin-5-yl)-4-fluorophenyl)-4-chloro-1-ethyl-1H-pyrazole-3-carboxamide] were 66.3 nM and 22 nM.
Consider `CC[C@]1(c2cc(NC(=O)c3ncc(F)cc3C)ccc2F)N=C(N)COCC1(F)F` [Example 102, (R)-N-(3-(3-Amino-5-ethyl-6,6-difluoro-2,5,6,7-tetrahydro-1,4-oxazepin-5-yl)-4-fluorophenyl)-5-fluoro-3-methylpicolinamide], for which the IC50 was 2200 nM in assay [1] and 33 nM in assay [2].
As for `CC1(C)OCC[C@@](C)(c2cc(NC(=O)c3ccc(Cl)cn3)ccc2F)N=C1N` [Example 47, 5-Chloro-pyridine-2-carboxylic acid [3-((S)-3-amino-2,2,5-trimethyl-2,5,6,7-tetrahydro-[1,4]oxazepin-5-yl)-4-fluoro-phenyl]-amide], the IC50 in assay [1] came to 46 nM; in assay [2], 58 nM.
Taken in the same sequence, the figures for `CC1(C)C[C@@](C)(c2cc(NC(=O)C3(C(F)(F)F)CC3)ccc2F)N=C(N)CO1` [Example 20, 1-Trifluoromethyl-cyclopropanecarboxylic acid [3-((S)-3-amino-5,7,7-trimethyl-2,5,6,7-tetrahydro-[1,4]oxazepin-5-yl)-4-fluoro-phenyl]-amide] were 38 nM and 220 nM.
Taken in the same sequence, the figures for `C[C@]1(c2cc(NC(=O)c3ncccc3C(F)(F)F)ccc2F)N=C(N)COCC1(F)F` [Example 37, (R)-N-(3-(3-amino-6,6-difluoro-5-methyl-2,5,6,7-tetrahydro-1,4-oxazepin-5-yl)-4-fluorophenyl)-3-(trifluoromethyl)picolinamide formate] were 25 nM and 54 nM.
Taken in the same sequence, the figures for `Cc1nc(C(=O)Nc2ccc(F)c([C@@]3(C)N=C(N)COCC3(F)F)c2)c(C(F)(F)F)o1` [Example 113, (R)-N-(3-(3-Amino-6,6-difluoro-5-methyl-2,5,6,7-tetrahydro-1,4-oxazepin-5-yl)-4-fluorophenyl)-2-methyl-5-(trifluoromethyl)oxazole-4-carboxamide] were 123 nM and 35.8 nM.
For the compound `Cc1ocnc1C(=O)Nc1ccc(F)c([C@@]2(C)N=C(N)COCC2(F)F)c1` [Example 98, (R)-N-(3-(3-Amino-6,6-difluoro-5-methyl-2,5,6,7-tetrahydro-1,4-oxazepin-5-yl)-4-fluorophenyl)-5-methyloxazole-4-carboxamide], the IC50 in assay [1] turned out to be 131 nM; in assay [2], 39 nM.
Regarding `CC[C@@]1(c2cc(NC(=O)c3ccc(Cl)cn3)ccc2F)CCOCC(N)=N1` [Example 14, 5-Chloro-pyridine-2-carboxylic acid [3-((S)-3-amino-5-ethyl-2,5,6,7-tetrahydro-[1,4]oxazepin-5-yl)-4-fluoro-phenyl]-amide], the half-maximal inhibitory concentration (IC50) in assay [1] was 69.5 nM; in assay [2], 93 nM.
For the compound `C[C@]1(c2cc(NC(=O)c3ccc(OCC(F)F)cn3)ccc2F)N=C(N)COCC1(F)F` [Example 60, (R)-N-(3-(3-amino-6,6-difluoro-5-methyl-2,5,6,7-tetrahydro-1,4-oxazepin-5-yl)-4-fluorophenyl)-5-(2,2-difluoroethoxy)picolinamide formate], the IC50 in assay [1] was found to be 4160 nM; in assay [2], 26 nM.
As for `C[C@]1(c2cc(NC(=O)c3n[nH]cc3Cl)ccc2F)N=C(N)COCC1(F)F` [Example 96, (R)-N-(3-(3-amino-6,6-difluoro-5-methyl-2,5,6,7-tetrahydro-1,4-oxazepin-5-yl)-4-fluorophenyl)-4-chloro-1H-pyrazole-3-carboxamide], the IC50 in assay [1] turned out to be 295 nM; in assay [2] it was 57 nM.
Consider `CC[C@@]1(c2cc(NC(=O)c3ncc(Cl)cc3Cl)ccc2F)CCOCC(N)=N1` [Example 15, 3,5-Dichloro-pyridine-2-carboxylic acid [3-((S)-3-amino-5-ethyl-2,5,6,7-tetrahydro-[1,4]oxazepin-5-yl)-4-fluoro-phenyl]-amide], for which the IC50 came out at 38 nM in assay [1] and 880 nM in assay [2].
